Assay results published in publication PMC10746280, “Bacterial efflux pump modulators prevent bacterial growth in macrophages and under broth conditions that mimic the host environment” (mBio, 2023).
Several values for one entry are separate records, joined by “and”; a condition that tells them apart may be missing. Identical values can stand only once.

Key:
RAW 264.7 macrophages = experiment: SAFIRE macrophage assay: host toxicity (adherent macrophage count, morphology); type: cell-based
Source text: (§1) In SAFIRE, we used MATLAB software to count the number of macrophages that remain adherent and retain the red fluorescence of MitoTracker, an indicator of voltage across the mitochondrial inner membrane. MATLAB then calculates the signal from bacteria (green fluorescent protein [GFP]) that overlaps with macrophages, as defined by MitoTracker, to estimate bacterial load. […] For example, we observed that the 6-trifluoropyrimidin-2-yl group on the right-hand side of EPM35 is apparently toxic to macrophages. Non-toxic analogs that reduced bacterial load by at least 60% at 5 µM and 25 µM in SAFIRE, as compared with DMSO, progressed and were evaluated in SAFIRE across eight or more concentrations, ranging from 0.001 µM to 50 µM (n = 2). […] Each of the top 13 analogs had at least an eightfold increase in potency and were not toxic for macrophages at 50 µM in the SAFIRE assay (Fig. 1C).
(§2) As previously described ([18]), RAW 264.7 macrophages (between passages 1 and 6) were grown in complete Dulbecco’s modified Eagle’s medium (DMEM) to approximately 70% to 90% confluence, scraped, washed, resuspended, diluted to 5 × 10^4 in 100 µL, and seeded in black, 96-well, glass-bottomed plates (Brooks Life Sciences catalog number MGB096-1-2-LG-L) at 37°C with 5% CO2. Twenty-four hours later, bacteria grown overnight in LB were diluted into 50 µL phosphate buffered saline (PBS) and added to a final concentration of 1 × 10^7 S. Typhimurium SL1344 (sifB::gfp) per milliliter ([78]) for an approximate multiplicity of infection of 30 bacteria per macrophage cell. Forty-five minutes after bacterial addition, gentamicin (Sigma catalog number G1264) was added to a final concentration of 40 µg/mL to inhibit the growth of remaining extracellular bacteria. Two hours after infection, gentamicin-containing medium was removed and replaced with 200 µL fresh DMEM with compound or DMSO (Sigma catalog number 276855) to the stated final concentrations. At 17.5 h after infection, PBS containing MitoTracker Red CMXRos (Life Technologies catalog number M7512), a vital dye for mitochondrial electric potential, was added to a final concentration of 100 nM. At 18 h after infection, 16% paraformaldehyde was added to a final concentration of 4% and incubated at room temperature for 15 min. Cells were washed twice with PBS and stained for 20 min with 1 µM 4′,6-diamidino-2-phenylindole (DAPI), a vital dye for double-stranded DNA, and stored in 90% glycerol in PBS until imaging. Samples were imaged in six fields of view per well using a semiautomated Yokogawa CellVoyager CV1000 confocal scanner system with a 20×, 0.75-numerical aperture (NA) objective. A MATLAB algorithm calculated bacterial accumulation (GFP fluorescence) within macrophages, as defined by DAPI and MitoTracker Red. GFP^+ macrophage area was defined as the number of GFP-positive pixels per macrophage divided by the total number of pixels per macrophage, averaged across all macrophages in the field ([34]).

[1] = test system: S. Typhimurium SL1344 (sifB::gfp) in RAW 264.7 macrophages; experiment: SAFIRE macrophage assay: intracellular bacterial load (GFP signal within macrophages); type: cell-based, Salmonella enterica serotype Typhimurium; settings: 'Toxic' given instead of a score
Source text: as §1, §2

| SMILES | 5 uM Avg Cell # Score (RAW 264.7 macrophages) | 25 uM Avg Cell # Score (RAW 264.7 macrophages) | 5 uM Avg Antibacterial Score [1] | 25 uM Avg Antibacterial Score [1] |
| --- | --- | --- | --- | --- |
| OC(COc1ccc(Cl)c(Cl)c1)CN1CCOC2(CCOCC2)C1 (centres unmarked) [CU027] | 58 | 104 | 107 | 95 |
| OC(COc1ccc(Cl)c(Cl)c1)CN1CCC(NC2CC2)C1 (centres unmarked) [CU028] | 85 | 134 | 88 | 41 |
| OC(COc1ccc(Cl)c(Cl)c1)CN1CCC(N2CCOCC2)C1 (centres unmarked) [CU029] | 75 | 146 | 105 | 63 |
| OC(COc1ccc(Cl)c(Cl)c1)CN1CCCC(N2CCOCC2)C1 (centres unmarked) [CU030] | 57 | 126 | 102 | 45 |
| CC(C)(C)OC(=O)NC1CCN(CC(O)COc2ccc(Cl)c(Cl)c2)C1 (centres unmarked) [CU031] | 88 | 140 | 102 | Toxic |
| CC(=O)NC1CCN(CC(O)COc2ccc(Cl)c(Cl)c2)C1 (centres unmarked) [CU033] | 79 | 110 | 106 | 72 |
| OC(COc1ccccc1)CN1CCC(Nc2nccc(C(F)(F)F)n2)CC1 (centres unmarked) [CU034] | 86 | 57 | 99 | Toxic |
| COc1ccc(OCC(O)CN2CCC(Nc3nccc(C(F)(F)F)n3)CC2)cc1 (centres unmarked) [CU036] | 54 | 120 | 102 | 24 |
| OC(COc1ccc(F)cc1)CN1CCC(Nc2nccc(C(F)(F)F)n2)CC1 (centres unmarked) [CU037] | 74 | 117 | 106 | 23 |
| OC(COc1ccc(Cl)cc1Cl)CN1CCC(Nc2nccc(C(F)(F)F)n2)CC1 (centres unmarked) [CU038] | 85 | 181 | 95 | Toxic |
| OC(COc1ccc(F)cc1F)CN1CCC(Nc2nccc(C(F)(F)F)n2)CC1 (centres unmarked) [CU039] | 90 | 145 | 107 | 13 |
| OC(COc1ccccc1Cl)CN1CCC(Nc2nccc(C(F)(F)F)n2)CC1 (centres unmarked) [CU040] | 84 | 114 | 109 | 19 |
| N#Cc1ccc(OCC(O)CN2CCC(Nc3nccc(C(F)(F)F)n3)CC2)cc1 (centres unmarked) [CU041] | 85 | 78 | 106 | 23 |
| OC(COc1ccc(Cl)c(Cl)c1)CN1CCC(Nc2ncccn2)CC1 (centres unmarked) [CU042] | 77 | 90 | 105 | 23 |
| OC(COc1ccccc1)CN1CCC(Nc2ncccn2)CC1 (centres unmarked) [CU043] | 69 | 107 | 106 | 81 |
| OC(COc1ccc(Cl)cc1)CN1CCC(Nc2ncccn2)CC1 (centres unmarked) [CU044] | 84 | 100 | 91 | 36 |
| OC(COc1ccc(F)cc1)CN1CCC(Nc2ncccn2)CC1 (centres unmarked) [CU045] | 86 | 109 | 101 | 99 |
| COc1ccc(OCC(O)CN2CCC(Nc3ncccn3)CC2)cc1 (centres unmarked) [CU046] | 74 | 173 | 103 | 75 |
| OC(COc1ccc(Cl)cc1Cl)CN1CCC(Nc2ncccn2)CC1 (centres unmarked) [CU047] | 72 | 141 | 107 | 26 |

| SMILES | 5 uM Avg Cell # Score (RAW 264.7 macrophages) | 25 uM Avg Cell # Score (RAW 264.7 macrophages) | 5 uM Avg Antibacterial Score [1] | 25 uM Avg Antibacterial Score [1] |
| --- | --- | --- | --- | --- |
| OC(COc1ccc(F)cc1F)CN1CCC(Nc2ncccn2)CC1 (centres unmarked) [CU048] | 85 | 159 | 105 | 95 |
| OC(COc1ccccc1Cl)CN1CCC(Nc2ncccn2)CC1 (centres unmarked) [CU049] | 84 | 121 | 104 | 61 |
| N#Cc1ccc(OCC(O)CN2CCC(Nc3ncccn3)CC2)cc1 (centres unmarked) [CU050] | 102 | 113 | 101 | 95 |
| OC(COc1ccc(Cl)c(Cl)c1)CN1CCC(Nc2nccs2)CC1 (centres unmarked) [CU051] | 123 | 105 | 58 | 45 |
| OC(COc1ccccc1)CN1CCC(Nc2nccs2)CC1 (centres unmarked) [CU052] | 110 | 165 | 106 | 93 |
| OC(COc1ccc(Cl)cc1)CN1CCC(Nc2nccs2)CC1 (centres unmarked) [CU053] | 127 | 140 | 101 | 42 |
| COc1ccc(OCC(O)CN2CCC(Nc3nccs3)CC2)cc1 (centres unmarked) [CU054] | 98 | 96 | 91 | 74 |
| OC(COc1ccc(Cl)c(Cl)c1)CN1CCCN(c2nccc(C(F)(F)F)n2)CC1 (centres unmarked) [CU055] | 77 | 99 | Toxic | Toxic |
| CNC(=O)C1CCN(CC(O)COc2ccc(Cl)c(Cl)c2)CC1 (centres unmarked) [CU057] | 85 | 89 | 101 | 93 |
| CN(C)C(=O)C1CCN(CC(O)COc2ccc(Cl)c(Cl)c2)CC1 (centres unmarked) [CU058] | 85 | 81 | 104 | 72 |
| CCN(CC)C(=O)C1CCN(CC(O)COc2ccc(Cl)c(Cl)c2)CC1 (centres unmarked) [CU059] | 105 | 88 | 97 | 46 |
| O=C1CCCN1C1CCN(CC(O)COc2ccc(Cl)c(Cl)c2)CC1 (centres unmarked) [CU060] | 100 | 99 | 98 | 83 |
| OC(COc1ccc(Cl)c(Cl)c1)CN1CCN(c2nccc(C(F)(F)F)n2)CC1 (centres unmarked) [CU061] | 74 | 101 | Toxic | Toxic |
| O=C(C1CCN(CC(O)COc2ccc(Cl)c(Cl)c2)CC1)N1CCCC1 (centres unmarked) [CU062] | 103 | 145 | 95 | 48 |
| CC(=O)NC1CCN(CC(O)COc2ccc(Cl)c(Cl)c2)CC1 (centres unmarked) [CU063] | 107 | 119 | 102 | 78 |
| CC(=O)N(C)C1CCN(CC(O)COc2ccc(Cl)c(Cl)c2)CC1 (centres unmarked) [CU064] | 86 | 82 | 106 | 90 |
| NC(=O)C1CCN(CC(O)COc2ccc(Cl)c(Cl)c2)C1 (centres unmarked) [CU065] | 80 | 87 | 106 | 90 |
| NC1CN(CC(O)COc2ccc(Cl)c(Cl)c2)C1 (centres unmarked) [CU150] | 112 and 118 | 112 and 143 |  |  |
